In brackets after ≈: the same amount, converted by molar mass. Activity calls are given as the source filed them. The rule behind the calls is not given here.
Key:
[1] = target: T1, Leukotriene A-4 hydrolase (Homo sapiens, UniProt P09960); experiment: Inhibition of LTA4H (unknown origin) using Arg-AMC as substrate preincubated with compound for 15 mins followed by substrate addition and measured after every 10 mins for 300 mins by fluorescence based assay
T1 sequence (P09960 whole entry): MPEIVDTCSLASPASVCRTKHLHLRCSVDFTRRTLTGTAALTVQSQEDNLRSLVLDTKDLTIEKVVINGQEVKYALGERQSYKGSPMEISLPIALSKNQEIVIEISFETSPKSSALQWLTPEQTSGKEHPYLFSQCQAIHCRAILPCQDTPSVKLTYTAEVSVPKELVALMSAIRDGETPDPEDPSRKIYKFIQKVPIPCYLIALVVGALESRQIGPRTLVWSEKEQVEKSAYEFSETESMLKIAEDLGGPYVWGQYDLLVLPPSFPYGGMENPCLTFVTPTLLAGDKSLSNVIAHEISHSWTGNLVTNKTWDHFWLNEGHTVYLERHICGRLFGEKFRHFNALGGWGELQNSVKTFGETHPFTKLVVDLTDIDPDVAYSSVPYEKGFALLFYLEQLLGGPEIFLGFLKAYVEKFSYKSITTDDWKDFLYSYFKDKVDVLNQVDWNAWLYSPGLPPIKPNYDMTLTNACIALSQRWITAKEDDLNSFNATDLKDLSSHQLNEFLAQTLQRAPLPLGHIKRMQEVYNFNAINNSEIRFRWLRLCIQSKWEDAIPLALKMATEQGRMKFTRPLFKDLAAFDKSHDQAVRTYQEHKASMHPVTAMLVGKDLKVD

[2] = Inhibition of calcium ionophore A23187-stimulated LTB4 release in C57BL/6 mouse model at 10 mg/kg, po bid measured after 24 hrs; format: functional
[3] = Half life in C57BL/6 mouse at 1 mg/kg, iv measured upto 24 hrs by LC-MS/MS analysis; format: ADME, organism-based; details: in vivo
[4] = Clearance in Wistar rat at 1 mg/kg, iv measured upto 24 hrs by LC-MS/MS analysis; format: ADME, organism-based; details: in vivo
[5] = Half life in Wistar rat at 1 mg/kg, iv measured upto 24 hrs by LC-MS/MS analysis; format: ADME, organism-based; details: in vivo
[6] = MRT in dog at 1 mg/kg, iv measured upto 24 hrs by LC-MS/MS analysis; format: ADME, organism-based, Canis lupus familiaris; details: in vivo
[7] = Half life in dog at 1 mg/kg, iv measured upto 24 hrs by LC-MS/MS analysis; format: ADME, organism-based, Canis lupus familiaris; details: in vivo
[8] = Oral bioavailability in C57BL/6 mouse at 3 mg/kg measured upto 24 hrs by LC-MS/MS analysis; format: ADME, organism-based; details: in vivo
[9] = Cmax in C57BL/6 mouse at 3 mg/kg, po measured upto 24 hrs by LC-MS/MS analysis; format: ADME, organism-based; design: time < 24 hrs, dose 3 mg/kg, route po; details: in vivo
[10] = Cmax in Wistar rat at 3 mg/kg, po measured upto 24 hrs by LC-MS/MS analysis; format: ADME, organism-based; design: dose 3 mg/kg, time < 24 hrs, route po; details: in vivo
[11] = Metabolic stability in mouse hepatocyte assessed as intrinsic clearance; format: ADME, cell-based; details: hepatocytes
[12] = AUC (0 to infinity) in Wistar rat at 3 mg/kg, po measured upto 24 hrs by LC-MS/MS analysis; format: ADME, organism-based; design: time < 24 hrs, dose 3 mg/kg, route po; details: in vivo
[13] = AUC (0 to infinity) in Wistar rat at 30 mg/kg, po measured upto 24 hrs by LC-MS/MS analysis; format: ADME, organism-based; design: dose 30 mg/kg, time < 24 hrs, route po; details: in vivo
[14] = AUC (0 to infinity) in dog at 3 mg/kg, po measured upto 24 hrs by LC-MS/MS analysis; format: ADME, organism-based, Canis lupus familiaris; design: time < 24 hrs, dose 3 mg/kg, route po; details: in vivo
[15] = Oral bioavailability in dog at 3 mg/kg measured upto 24 hrs by LC-MS/MS analysis; format: ADME, organism-based, Canis lupus familiaris; details: in vivo
[16] = Metabolic stability in rat hepatocyte assessed as intrinsic clearance; format: ADME, cell-based; details: hepatocytes
[17] = Metabolic stability in dog hepatocyte assessed as intrinsic clearance; format: ADME, cell-based, Canis lupus familiaris; details: hepatocytes
[18] = Metabolic stability in human hepatocyte assessed as intrinsic clearance; format: ADME, cell-based; details: hepatocytes
[19] = Solubility of compound in SGF at pH […]; format: physicochemical
[20] = Solubility of compound in FaSSIF at pH 6.8; format: physicochemical
[21] = Drug concentration in blood of arachidonic acid-induced skin inflammation 129S2/SvPasCrl mouse model at 0.3 mg/kg, po measured after 4 hrs; format: ADME, organism-based; details: read-out: Ct
[22] = Inhibition of arachidonic acid-stimulated LTB4 release in skin inflammation 129S2/SvPasCrl mouse model at 0.03 mg/kg, po pretreated with compound for 4 hrs followed by arachidonic acid stimulation and measured after 1 hr; format: functional; details: time 5 hrs
[23] = Inhibition of arachidonic acid-stimulated LTB4 release in skin inflammation 129S2/SvPasCrl mouse model at 3 mg/kg, po pretreated with compound for 4 hrs followed by arachidonic acid stimulation and measured after 1 hr; format: functional; details: time 5 hrs
[24] = Inhibition of neutrophil influx in arachidonic acid-stimulated skin inflammation 129S2/SvPasCrl mouse model assessed as effect on MPO level in skin at 0.3 mg/kg, po pretreated with compound for 4 hrs followed by arachidonic acid stimulation and measured after 1 hr; format: functional; details: time 5 hrs
[25] = Inhibition of neutrophil influx in arachidonic acid-stimulated skin inflammation 129S2/SvPasCrl mouse model assessed as effect on MPO level in skin at 3 mg/kg, po pretreated with compound for 4 hrs followed by arachidonic acid stimulation and measured after 1 hr; format: functional; details: time 5 hrs
[26] = system: Mus musculus; experiment: Antiarthritic activity in KRN passive serum-induced arthritis C57BL/6 mouse model assessed as reduction in joint damage at 0.1 to 10 mg/kg, po bid measured on day 7 at 2 hrs after first dose and 14 hrs after second dose; format: functional, organism-based; details: dose 0.1-10 mg/kg, time 7.0 day
[27] = system: Mus musculus; experiment: Antiarthritic activity in KRN passive serum-induced arthritis C57BL/6 mouse model assessed as reduction in neutrophil numbers at 0.1 to 10 mg/kg, po bid measured on day 7 at 2 hrs after first dose and 14 hrs after second dose; format: functional, organism-based; details: dose 0.1-10 mg/kg, time 7.0 day
[28] = target: Voltage-gated inwardly rectifying potassium channel KCNH2 (Homo sapiens, UniProt Q12809)
Voltage-gated inwardly rectifying potassium channel KCNH2, sequence (Q12809 whole entry): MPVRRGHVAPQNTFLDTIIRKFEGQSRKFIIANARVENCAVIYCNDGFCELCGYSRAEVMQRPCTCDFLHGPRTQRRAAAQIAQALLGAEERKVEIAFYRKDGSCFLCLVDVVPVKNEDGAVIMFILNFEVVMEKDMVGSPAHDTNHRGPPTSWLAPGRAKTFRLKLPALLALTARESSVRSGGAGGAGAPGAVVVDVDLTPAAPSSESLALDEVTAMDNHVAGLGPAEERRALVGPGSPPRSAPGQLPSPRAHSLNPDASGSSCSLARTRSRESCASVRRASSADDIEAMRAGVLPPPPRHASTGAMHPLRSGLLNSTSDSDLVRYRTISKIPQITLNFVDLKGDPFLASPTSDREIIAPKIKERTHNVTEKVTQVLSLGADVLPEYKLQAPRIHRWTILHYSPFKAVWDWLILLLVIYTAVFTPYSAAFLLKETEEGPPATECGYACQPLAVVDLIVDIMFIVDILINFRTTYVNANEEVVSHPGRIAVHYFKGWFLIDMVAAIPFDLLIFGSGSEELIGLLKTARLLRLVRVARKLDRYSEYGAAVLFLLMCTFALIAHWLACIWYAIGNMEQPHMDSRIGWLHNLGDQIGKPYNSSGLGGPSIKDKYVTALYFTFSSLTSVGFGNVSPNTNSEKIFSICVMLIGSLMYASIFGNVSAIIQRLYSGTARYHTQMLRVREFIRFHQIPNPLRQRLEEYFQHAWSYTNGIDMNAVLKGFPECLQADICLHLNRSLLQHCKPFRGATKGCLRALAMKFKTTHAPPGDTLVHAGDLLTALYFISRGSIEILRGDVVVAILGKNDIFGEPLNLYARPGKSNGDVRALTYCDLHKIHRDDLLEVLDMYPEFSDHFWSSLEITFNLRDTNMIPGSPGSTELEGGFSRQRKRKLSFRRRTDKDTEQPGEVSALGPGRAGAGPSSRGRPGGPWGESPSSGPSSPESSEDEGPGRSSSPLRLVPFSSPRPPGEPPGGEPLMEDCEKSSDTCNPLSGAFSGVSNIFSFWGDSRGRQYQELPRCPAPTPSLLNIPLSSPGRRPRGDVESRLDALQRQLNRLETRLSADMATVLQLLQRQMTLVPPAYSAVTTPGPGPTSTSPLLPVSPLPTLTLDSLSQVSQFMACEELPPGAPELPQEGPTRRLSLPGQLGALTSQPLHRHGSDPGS

[29] = in vivo; details: Sprague-Dawley, rat, iv, 1 mg/kg
[30] = in vivo; details: Sprague-Dawley, rat, po, 3 mg/kg
[31] = in vivo; details: C57BL/6, mouse, in vivo, po, 10 mg/kg
[32] = in vivo; details: C57BL/6, mouse, in vivo, po, 10 mg/kg; remark: listed apart in the source
[33] = physchem; details: octanol/water, pH 7.4
[34] = in vitro; details: mouse, liver microsomes
[35] = system: Leukotriene A4 hydrolase (Homo sapiens); experiment: Inhibition of LTB4 in calcium ionophore A23187-stimulated human PBMC cells at 1 uM pretreated with compound for 15 mins followed by calcium ionophore A23187 induction and measured after 2 hrs by LC-MS/MS analysis; details: time 135.0 min

## N[C@H](CO)Cn1ccc(-c2ccc(Oc3ncc(-c4cc[nH]n4)cc3F)cc2)n1
[1]
  IC50: < 3 nM
[2]
  inhibition in vivo at 10 mg/kg: 93%
[3]
  half-life: 204 min
[4]
  clearance: 7.3 mL/min/kg
[5]
  half-life: 780 min
[6]
  MRT: 28 h
[7]
  half-life: 2400 min
[8]
  bioavailability: 32%
[9]
  Cmax: 443 nM
[10]
  Cmax: 351 nM
[11]
  CLH: 6 µL/min/mg
[12]
  AUC(0-inf): 4.99 µM·h
[13]
  AUC(0-inf): 59.2 µM·h
[14]
  AUC(0-inf): 15 µM·h
[15]
  bioavailability: 39%
[16]
  CLH: 20 µL/min/mg
[17]
  CLH: 6 µL/min/mg
[18]
  CLH: < 4 µL/min/mg
[19]
  solubility: 27 µg/mL (≈ 68.5 µM)
[20]
  solubility: > 2000 µg/mL
[21]
  concentration at 4 h: 108 nM
[22]
  inhibition in vivo at 0.03 mg/kg: 74%
[23]
  inhibition in vivo at 3 mg/kg: 97%
[24]
  inhibition in vivo at 0.3 mg/kg: 81%
[25]
  inhibition in vivo at 3 mg/kg: 96%
[26]
  Activity: Active
[27]
  Activity: Active
[28]
  IC50: 27 µM
[29]
  clearance: 20 mL/min/kg
[30]
  AUC(0-inf): 3.87 µM·h
[31]
  concentration at 2 h: 2600 nM
[32]
  concentration at 24 h: 218 nM
[33]
  logD: 2
[34]
  microsomal CLint: 90 µL/min/mg
[35]
  inhibition: 100%
